Reference: US20240197729A1, “ALK-5 Inhibitors and Uses Thereof” (Sumitomo Pharma Oncology, Inc., priority 2021, published 2024)

Columns and labels:
[1] = system: TGF-β1-mediated αSMA expression; details: human, 73 h
Description: To test the ability of selected compounds to inhibit the TGF-β1-dependent transition of fibroblasts to myofibroblasts in a relevant disease model of IPF, an FMT assay was performed using lung fibroblasts from IPF patients. In this assay, the transition of fibroblasts to myofibroblasts is determined by the expression of the biomarker alpha smooth muscle actin (α-SMA).
Primary human bronchial fibroblasts derived from IPF patients were seeded on day zero and the media was refreshed on day two. On day five, selected compounds or controls were added at an eight-point concentration response curve starting at 10 μM (semi-log dilutions). Each drug concentration condition was evaluated in biological duplicates. […] Seventy-two hours following TGF-beta addition, the cells were fixed with formaldehyde. High content imaging evaluating cell number using the nuclear stain DAPI as well as the expression of a-SMA was performed. The following controls were run alongside the selected compounds: vactosertib and the approved IPF drug nintedanib (at an eight-point, semi-log curve with 10 μM starting concentration). As a negative control 0.1% DMSO was also used, matching the DMSO concentration in treated wells. The following calculations were used to determine cell number as well as percent inhibition (PIN) of alpha SMA expression:
• Segmentation and quantification of αSMA immunoreactivity by an HCA algorithm, with density×area (D×A) output • Data normalization of raw αSMA (D×A) to percentage inhibition (PIN) values, on a plate-to-plate basis
• DAPI fluorescence applied for HCA-based quantification of the number of imaged cells, on a plate-to-plate basis
[formula] • μn is the average numbers of nuclei of the vehicle control (TGF-β1+0.1% DMSO) • Xi is the compound number of nuclei

[2] = system: TGF-β-induced pan-collagen expression; assay: In vitro 3D liver fibrosis assay (HepaRG NP 3D model); format: cell-based; details: 1 μM, 100 ng/mL TGF-β1, 72 hours
Description: An additional fibrosis assay was carried out with selected compounds using the Visikol OpenLiver™ HepaRG™ NP 3D model directed at fibrosis. The OpenLiver™ HepaRG™ NP 3D model features the ability to recapitulate a number of liver disease pathologies. Whether evaluating the disease-inducing liability of a compound or exploring targets to exploit for therapeutic amelioration of disease state, the HepaRG™ NP 3D model is capable of recapitulating disease features such hepatocellular lipid accumulation, nonparenchymal cell phenotype shift, and collagen matrix deposition.
HepaRGs (Lonza, NSHPRG, Lot #HNS1013) and non-parenchymal (NP) cells (Stellates, Kupffers and LSECS (Lonza, Lot HUM201221)) were thawed, assessed for viability and seeded at a hepatocyte to NP cell ratio of 60:40 into an ultra-low attachment round-bottom plate (Corning, 4515). The cells were initially cultured in William's E medium supplemented with HepaRG Thaw, Plate & General Purpose Supplement (Thermo Fisher, HPRG770) and GlutaMax (Thermo Fisher, 35050061) overnight. The next day the medium was half exchanged with William's E medium supplemented with HepaRG Maintenance Supplement (Thermo Fisher, HPRG720) and GlutaMax (Thermo Fisher, 35050061). […]
Clearing the spheroid with Visikol HISTO-M™ allows for clear images throughout the spheroid volume, therefore allowing the entire z-stack to be analyzed. […]

SMILES: Cc1cccc(-c2[nH]c(CNc3ccccc3F)nc2-c2ccc3ncnn3c2)n1 [Vactosertib, vactosertib, reference compound]
- Potentially toxic concentration [1]: 5.0

SMILES: Clc1cccc2c(Nc3ccnc(Nc4cccc(N5CCOCC5)c4)c3)cnnc12 [Compound 04, N4-(8-chlorocinnolin-4-yl)-N2-[3-(morpholin-4-yl)phenyl]pyridine-2,4-diamine]
- TGF-β-induced pan-collagen expression [2]: inhibited TGF-β-induced pan-collagen expression

SMILES: Cc1nn(CC(F)(F)F)cc1Nc1cc(Nc2cnnc3c(C)cccc23)ccn1 [Compound 01, N2-[3-methyl-1-(2,2,2-trifluoroethyl)-1H-pyrazol-4-yl]-N4-(8-methylcinnolin-4-yl)pyridine-2,4-diamine]
- TGF-β-induced pan-collagen expression [2]: inhibited TGF-β-induced pan-collagen expression
